Measurements from paper PMC12888861, “Antibacterial activity of enmetazobactam against Acinetobacter spp.: a molecular dissection of mechanism of action and resistance determinants” (Antimicrobial Agents and Chemotherapy, 2025).
≈ marks a conversion by molar mass, not a printed value. Read-outs that look alike come from different tables or passages of the source.

Columns and labels:
[1] = test system: A. baumannii ATCC 19606 cells; test: Cell morphology assay, bright-field microscopy; type: cell-based, Acinetobacter baumannii
Protocol: In order to confirm the involvement of PBPs as targets of enmetazobactam, cell morphology assays involving exposure to enmetazobactam and sulbactam were performed following the methodology described in Supplementary materials and methods.
To confirm the involvement of PBPs as targets of enmetazobactam, the cellular morphology of A. baumannii ATCC 19606 reference strain was analyzed after exposure to the compound at different concentrations. Bright-field microscopy was used to monitor the cell morphology. […] For microscopic visualization, aliquots of each sample were obtained, stained with crystal violet solution and observed using an Olympus BX61 microscope (Olympus).
Changes in cell morphology were determined on the basis of alterations in septal integrity, abnormal elongation, spheroplast formation and filamentation, patterns previously associated with the selective inhibition of PBP1, PBP2 and PBP3 in Gram-negative bacilli. Specifically, PBP1 inhibition has been linked to cell lysis, PBP2 inhibition has been linked to spherification, and PBP3 inhibition to defective cell division and filament formation (1, 2). The results were qualitatively compared across different treatments to infer the potential selectivity of enmetazobactam for specific PBPs.

[2] = test system: A. non-baumannii isolates (n = 87); test: MIC, broth microdilution (EUCAST), A. non-baumannii isolates; type: cell-based, Acinetobacter spp. (non-baumannii)
Excerpt: The bacterial strains used in this study comprised 208 clinical isolates from the Spanish National Acinetobacter spp. 2020 Multicenter Collection, which was previously characterized in detail by our research group, including whole-genome sequencing, phylogenetics studies, clonal dynamics, and resistance mechanisms ([2], [29]). Additionally, a collection of A. baumannii ATCC 17978 transformants coding the blaOXA-23, blaOXA-24/40, blaOXA-51, blaOXA-58, blaOXA-143, and blaOXA-201 genes, previously constructed and described by our group ([30]), was used to determine the activity of enmetazobactam against strains carrying the main CHDLs of A. baumannii.
The antimicrobial susceptibility of the 208 Acinetobacter spp. isolates was assessed using the broth microdilution method, as described in the European Committee on Antimicrobial Susceptibility Testing (EUCAST) v.15 guidelines (http://www.eucast.org/clinical_breakpoints). […] MICs for enmetazobactam alone were assessed as well. […] Subsequently, MIC testing was also conducted with a collection of A. baumannii ATCC 17978 transformants expressing clinically relevant OXA-like carbapenemase genes.
The A. baumannii ATCC 19606 strain was used as the reference strain in all susceptibility experiments, in duplicate assays. Antibiotics were purchased from Sigma-Aldrich, except enmetazobactam and durlobactam, which were obtained from Advanz Pharma and MedChemExpress, respectively.

SMILES: C[n+]1ccn(C[C@@]2(C)[C@H](C(=O)[O-])N3C(=O)C[C@H]3S2(=O)=O)n1 [enmetazobactam]
- cell morphology ([1]; A. baumannii ATCC 19606, overnight exposure at 1× MIC): elongated filaments
- cell morphology ([1]; A. baumannii ATCC 19606, overnight exposure at 2× MIC): the filaments shortened in length
- MIC distribution 0.12 [2]: 0
- MIC ([2]; Acinetobacter baylyi, isolate NO-Ab27, Acinetobacter baylyi, in combinations ETZ fixed at 8 mg/L, read-out: MIC): 2 µg/mL
- MIC ([2]; Acinetobacter beijerinckii, isolate NO-Ab122, Acinetobacter beijerinckii, in combinations ETZ fixed at 8 mg/L, read-out: MIC): 2 µg/mL
- MIC ([2]; Acinetobacter bereziniae, isolate NO-Ab70, Acinetobacter bereziniae, in combinations ETZ fixed at 8 mg/L, read-out: MIC): 1 µg/mL
- MIC ([2]; Acinetobacter bereziniae, isolate NO-Ab84, Acinetobacter bereziniae, in combinations ETZ fixed at 8 mg/L, read-out: MIC): 1 µg/mL
- MIC ([2]; Acinetobacter bereziniae, isolate NO-Ab104, Acinetobacter bereziniae, in combinations ETZ fixed at 8 mg/L, read-out: MIC): 1 µg/mL
- MIC ([2]; Acinetobacter bereziniae, isolate NO-Ab114, Acinetobacter bereziniae, in combinations ETZ fixed at 8 mg/L, read-out: MIC): 1 µg/mL
- MIC ([2]; Acinetobacter bereziniae, isolate NO-Ab115, Acinetobacter bereziniae, in combinations ETZ fixed at 8 mg/L, read-out: MIC): 1 µg/mL
- MIC ([2]; Acinetobacter bereziniae, isolate NO-Ab116, Acinetobacter bereziniae, in combinations ETZ fixed at 8 mg/L, read-out: MIC): 1 µg/mL
- MIC ([2]; Acinetobacter bereziniae, isolate NO-Ab117, Acinetobacter bereziniae, in combinations ETZ fixed at 8 mg/L, read-out: MIC): 2 µg/mL
- MIC ([2]; Acinetobacter bereziniae, isolate NO-Ab129, Acinetobacter bereziniae, in combinations ETZ fixed at 8 mg/L, read-out: MIC): 1 µg/mL
- MIC ([2]; Acinetobacter bereziniae, isolate NO-Ab156, Acinetobacter bereziniae, in combinations ETZ fixed at 8 mg/L, read-out: MIC): 4 µg/mL
- MIC ([2]; Acinetobacter calcoaceticus, isolate NO-Ab85, Acinetobacter calcoaceticus, in combinations ETZ fixed at 8 mg/L, read-out: MIC): 4 µg/mL
- MIC ([2]; Acinetobacter calcoaceticus, isolate NO-Ab94, Acinetobacter calcoaceticus, in combinations ETZ fixed at 8 mg/L, read-out: MIC): 2 µg/mL
- MIC ([2]; Acinetobacter calcoaceticus, isolate NO-Ab108, Acinetobacter calcoaceticus, in combinations ETZ fixed at 8 mg/L, read-out: MIC): 4 µg/mL
- MIC ([2]; Acinetobacter calcoaceticus, isolate NO-Ab161, Acinetobacter calcoaceticus, in combinations ETZ fixed at 8 mg/L, read-out: MIC): 8 µg/mL
- MIC ([2]; Acinetobacter calcoaceticus, isolate NO-Ab198, Acinetobacter calcoaceticus, in combinations ETZ fixed at 8 mg/L, read-out: MIC): 4 µg/mL
- MIC ([2]; Acinetobacter calcoaceticus, isolate NO-Ab205, Acinetobacter calcoaceticus, in combinations ETZ fixed at 8 mg/L, read-out: MIC): 4 µg/mL
- MIC ([2]; Acinetobacter calcoaceticus, isolate NO-Ab211, Acinetobacter calcoaceticus, in combinations ETZ fixed at 8 mg/L, read-out: MIC): 4 µg/mL
- MIC ([2]; Acinetobacter courvalinii, isolate NO-Ab216, Acinetobacter courvalinii, in combinations ETZ fixed at 8 mg/L, read-out: MIC): 1 µg/mL
- MIC ([2]; Acinetobacter dispersus, isolate NO-Ab2, Acinetobacter dispersus, in combinations ETZ fixed at 8 mg/L, read-out: MIC): 2 µg/mL
- MIC ([2]; Acinetobacter guillouiae, isolate NO-Ab69, Acinetobacter guillouiae, in combinations ETZ fixed at 8 mg/L, read-out: MIC): 2 µg/mL
- MIC ([2]; Acinetobacter guillouiae, isolate NO-Ab74, Acinetobacter guillouiae, in combinations ETZ fixed at 8 mg/L, read-out: MIC): 2 µg/mL
- MIC ([2]; Acinetobacter haemolyticus, isolate NO-Ab92, Acinetobacter haemolyticus, in combinations ETZ fixed at 8 mg/L): 1 µg/mL
- MIC ([2]; Acinetobacter haemolyticus, isolate NO-Ab177, Acinetobacter haemolyticus, in combinations ETZ fixed at 8 mg/L): 1 µg/mL
- MIC ([2]; Acinetobacter haemolyticus, isolate NO-Ab217, Acinetobacter haemolyticus, in combinations ETZ fixed at 8 mg/L): 0.5 µg/mL
- MIC ([2]; Acinetobacter johnsonii, isolate NO-Ab101, Acinetobacter johnsonii, in combinations ETZ fixed at 8 mg/L, read-out: MIC): 4 µg/mL
- MIC ([2]; Acinetobacter junii, isolate NO-Ab76, Acinetobacter junii, in combinations ETZ fixed at 8 mg/L, read-out: MIC): 2 µg/mL
- MIC ([2]; Acinetobacter junii, isolate NO-Ab77, Acinetobacter junii, OXA-24/40, in combinations ETZ fixed at 8 mg/L, read-out: MIC): 2 µg/mL
- MIC ([2]; Acinetobacter lactucae, isolate NO-Ab60, Acinetobacter dijkshoorniae, in combinations ETZ fixed at 8 mg/L, read-out: MIC): 4 µg/mL
- MIC ([2]; Acinetobacter lactucae, isolate NO-Ab63, Acinetobacter dijkshoorniae, in combinations ETZ fixed at 8 mg/L, read-out: MIC): 4 µg/mL
- MIC ([2]; Acinetobacter lactucae, isolate NO-Ab65, Acinetobacter dijkshoorniae, in combinations ETZ fixed at 8 mg/L, read-out: MIC): 4 µg/mL
- MIC ([2]; Acinetobacter lactucae, isolate NO-Ab86, Acinetobacter dijkshoorniae, in combinations ETZ fixed at 8 mg/L, read-out: MIC): 2 µg/mL
- MIC ([2]; Acinetobacter lactucae, isolate NO-Ab88, Acinetobacter dijkshoorniae, in combinations ETZ fixed at 8 mg/L, read-out: MIC): 2 µg/mL
- MIC ([2]; Acinetobacter lactucae, isolate NO-Ab91, Acinetobacter dijkshoorniae, in combinations ETZ fixed at 8 mg/L, read-out: MIC): 2 µg/mL
- MIC ([2]; Acinetobacter lactucae, isolate NO-Ab121, Acinetobacter dijkshoorniae, in combinations ETZ fixed at 8 mg/L, read-out: MIC): 2 µg/mL
- MIC ([2]; Acinetobacter lactucae, isolate NO-Ab125, Acinetobacter dijkshoorniae, in combinations ETZ fixed at 8 mg/L, read-out: MIC): 1 µg/mL
- MIC ([2]; Acinetobacter lactucae, isolate NO-Ab160, Acinetobacter dijkshoorniae, in combinations ETZ fixed at 8 mg/L, read-out: MIC): 4 µg/mL
- MIC ([2]; Acinetobacter nosocomialis, isolate NO-Ab43, Acinetobacter nosocomialis, in combinations ETZ fixed at 8 mg/L, read-out: MIC): 2 µg/mL
- MIC ([2]; Acinetobacter nosocomialis, isolate NO-Ab68, Acinetobacter nosocomialis, OXA-24/40, in combinations ETZ fixed at 8 mg/L, read-out: MIC): 16 µg/mL
- MIC ([2]; Acinetobacter nosocomialis, isolate NO-Ab98, Acinetobacter nosocomialis, in combinations ETZ fixed at 8 mg/L, read-out: MIC): 2 µg/mL
- MIC ([2]; Acinetobacter nosocomialis, isolate NO-Ab208, Acinetobacter nosocomialis, in combinations ETZ fixed at 8 mg/L, read-out: MIC): 2 µg/mL
- MIC ([2]; Acinetobacter pittii, MBC set, isolate NO-Ab89, A. pittii, read-out: MIC): 2 µg/mL (≈ 6.36 µM)
- MIC ([2]; Acinetobacter pittii, isolate NO-Ab59, Acinetobacter pittii, in combinations ETZ fixed at 8 mg/L, read-out: MIC): 2 µg/mL
- MIC ([2]; Acinetobacter pittii, isolate NO-Ab66, Acinetobacter pittii, in combinations ETZ fixed at 8 mg/L, read-out: MIC): 2 µg/mL
- MIC ([2]; Acinetobacter pittii, isolate NO-Ab73, Acinetobacter pittii, in combinations ETZ fixed at 8 mg/L, read-out: MIC): 2 µg/mL
- MIC ([2]; Acinetobacter pittii, isolate NO-Ab75, Acinetobacter pittii, in combinations ETZ fixed at 8 mg/L, read-out: MIC): 2 µg/mL
- MIC ([2]; Acinetobacter pittii, isolate NO-Ab78, Acinetobacter pittii, in combinations ETZ fixed at 8 mg/L, read-out: MIC): 2 µg/mL
- MIC ([2]; Acinetobacter pittii, isolate NO-Ab82, Acinetobacter pittii, in combinations ETZ fixed at 8 mg/L, read-out: MIC): 2 µg/mL
- MIC ([2]; Acinetobacter pittii, isolate NO-Ab89, Acinetobacter pittii, in combinations ETZ fixed at 8 mg/L, read-out: MIC): 2 µg/mL
